Each structure is given as a SMILES string.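 Step 1: Grow cells in 96-well plates. Step 2: Expose to compound for 48 hours at 5 concentrations. Step 3: Interpolate endpoints linearly; if unreached, use highest concentration. GI50 = concentration required for 50% inhibition of growth.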 Active and inactive are the calls of the source. No stated cut-off is given here; in the data, active = GI50 up to about 1.1 µM and inactive = higher.

Experimental findings from ChEMBL document CHEMBL1201862, “PubChem BioAssay data set” (2004) are described below.

Some test systems named below: Hs-578T; HL-60; SK-OV-3; NCI/ADR-RES; RXF 393; T47D; KM12; SF-268; OVCAR-5; A498; A549; UO-31; M14; OVCAR-4; MCF7; NCI-H23; IGROV-1; NCI-H226; OVCAR-8.
Common to all, as to assay: growth of human tumour cells (NCI), 48 h

As to `CC(C)(C)COS(=O)OCC(C)(C)C`, the GI50 in the experiment on Hs-578T, in the experiment with HL-60, in the experiment with SK-OV-3, in the experiment with NCI/ADR-RES, in the experiment with RXF 393 and in the experiment on T47D was > 100 µM (inactive) in each case. The GI50 with KM12, in the experiment on SF-268, in the experiment on OVCAR-5, in the experiment with A498, in the experiment with A549 and in the experiment on UO-31 was > 100 µM (inactive) each time. For the same compound, the GI50 in the experiment on M14, in the experiment on OVCAR-4, in the experiment with MCF7, with NCI-H23, in the experiment with IGROV-1 and with NCI-H226 was > 100 µM (inactive) in each case. Further, in the experiment with OVCAR-8, the GI50 was > 100 µM (inactive).
Take `CC(=O)NC(CS)C(=O)O` (stereo not given): the GI50 with Hs-578T was 18700 µM (inactive); with HL-60, 34200 µM (inactive); in the experiment on SK-OV-3, 44200 µM (inactive); in the experiment with NCI/ADR-RES, 22600 µM (inactive); in the experiment on RXF 393, 21900 µM (inactive); in the experiment on T47D, 26900 µM (inactive). Also, the GI50 was 33300 µM (inactive) in the experiment with KM12; 20900 µM (inactive) in the experiment with SF-268; 14500 µM (inactive) in the experiment on OVCAR-5; 3970 µM (inactive) in the experiment on A498; 15700 µM (inactive) in the experiment with A549; 7640 µM (inactive) in the experiment on UO-31. For the same compound, the GI50 with M14 was 7360 µM (inactive); with OVCAR-4 it was 50900 µM (inactive); in the experiment on MCF7 it was 25200 µM (inactive); in the experiment on NCI-H23 it was 20200 µM (inactive); in the experiment with IGROV-1, 2610 µM (inactive); in the experiment with NCI-H226, 10500 µM (inactive). Further, in the experiment on OVCAR-8, the GI50 is 24700 µM (inactive).
As to `CCOC(=O)CCC(NC(=O)c1ccc(Oc2nc3ccc(C(F)(F)F)cc3nc2-c2ccccc2)cc1)C(=O)OCC` (stereo not given), the GI50 is 3.33 µM (inactive) with Hs-578T; > 100 µM (inactive) in the experiment with HL-60; 15 µM (inactive) in the experiment on SK-OV-3; 15.5 µM (inactive) in the experiment with NCI/ADR-RES; 15.7 µM (inactive) in the experiment on RXF 393; > 42.2 µM (inactive) with T47D. Further, the GI50 with KM12 was 11.2 µM (inactive); in the experiment on SF-268, 6.55 µM (inactive); with OVCAR-5 it was > 68.7 µM (inactive); in the experiment on A498, 16.4 µM (inactive); with A549, 24.2 µM (inactive); with UO-31, 20.6 µM (inactive). The GI50 with M14 is 67.6 µM (inactive); in the experiment with OVCAR-4, 6.22 µM (inactive); in the experiment on MCF7, > 41.5 µM (inactive); with NCI-H23, 16.8 µM (inactive); in the experiment on IGROV-1, 22.7 µM (inactive); in the experiment with NCI-H226 it was 4.32 µM (inactive). In addition, the GI50 with OVCAR-8 is 9.06 µM (inactive).
On to `Cn1c2cn[nH]c(=O)c2c2ccc3ccccc3c21`, for which the GI50 in the experiment on Hs-578T was 11.9 µM (inactive); in the experiment with HL-60, 85.5 µM (inactive); with SK-OV-3, 28.8 µM (inactive); in the experiment on NCI/ADR-RES, 84.1 µM (inactive); with RXF 393 it was 19.3 µM (inactive); in the experiment with T47D it was > 100 µM (inactive). For the same compound, the GI50 is > 100 µM (inactive) with KM12; 22.6 µM (inactive) in the experiment on SF-268; > 100 µM (inactive) in the experiment with OVCAR-5; 9.04 µM (inactive) in the experiment with A498; 27.7 µM (inactive) in the experiment on A549; 16.1 µM (inactive) in the experiment on UO-31. Further, the GI50 with M14 is > 100 µM (inactive); with OVCAR-4, 58.1 µM (inactive); with MCF7, 30.2 µM (inactive); with NCI-H23 it was 21.6 µM (inactive); with IGROV-1, 11.7 µM (inactive); in the experiment on NCI-H226, 36.1 µM (inactive). Besides, the GI50 with OVCAR-8 is 41.6 µM (inactive).
As to `O=C(ON=c1c2ccccc2ccc2ccccc12)c1ccccc1`, the GI50 with Hs-578T is 22.2 µM (inactive); in the experiment with HL-60, 6.28 µM (inactive); with SK-OV-3, 56 µM (inactive); with NCI/ADR-RES, 21.2 µM (inactive); in the experiment on RXF 393 it was 17.9 µM (inactive); in the experiment on T47D, 30.3 µM (inactive). Moreover, the GI50 with KM12 was 11.8 µM (inactive); in the experiment with SF-268 it was 35.6 µM (inactive); in the experiment on OVCAR-5 it was 60.8 µM (inactive); with A498, 22.1 µM (inactive); in the experiment with A549 it was 29.7 µM (inactive); in the experiment on UO-31 it was 25.5 µM (inactive). Also, the GI50 was 18.1 µM (inactive) in the experiment with M14; 28 µM (inactive) in the experiment on OVCAR-4; 24 µM (inactive) in the experiment with MCF7; 37.5 µM (inactive) in the experiment on NCI-H23; 24 µM (inactive) in the experiment with IGROV-1; 22.3 µM (inactive) in the experiment with NCI-H226. The GI50 in the experiment with OVCAR-8 is 27.4 µM (inactive).
`COC(=O)[C@H]1[C@H](C(=O)OC)[C@@H](C)c2c(ccc3c2[nH]c2ccccc23)[C@@H]1C`: the GI50 was 31.1 µM (inactive) in the experiment on Hs-578T; 5.81 µM (inactive) with HL-60; 92.9 µM (inactive) with SK-OV-3; > 100 µM (inactive) in the experiment on NCI/ADR-RES; 14.1 µM (inactive) with RXF 393; 13 µM (inactive) with T47D. The GI50 with KM12 is 32.9 µM (inactive); in the experiment on SF-268, 48.9 µM (inactive); with OVCAR-5, > 100 µM (inactive); in the experiment with A498 it was > 100 µM (inactive); in the experiment with A549, 31.1 µM (inactive); in the experiment on UO-31 it was > 100 µM (inactive). Besides, the GI50 with M14 was 24.2 µM (inactive); in the experiment with OVCAR-4, 38.9 µM (inactive); in the experiment on MCF7, 43.4 µM (inactive); with NCI-H23, 41.2 µM (inactive); with IGROV-1 it was 71.9 µM (inactive); in the experiment with NCI-H226, > 100 µM (inactive). The GI50 in the experiment on OVCAR-8 was 46.3 µM (inactive).
For the compound `CCCCCc1cc2cc3c(c(O)c2c(=O)[nH]1)C1(CC3)C(=O)c2c(O)c3c(c(O)c2C1=O)C(=O)C(OC)=CC3=O` (stereo not given), the GI50 is 1.53 µM (inactive) with Hs-578T; 0.421 µM (active) in the experiment with HL-60; 2.61 µM (inactive) with SK-OV-3; 1.17 µM (inactive) with NCI/ADR-RES; 0.877 µM (active) with RXF 393; 0.239 µM (active) in the experiment on T47D. Further, the GI50 is 1.26 µM (inactive) with KM12; 0.946 µM (active) in the experiment on SF-268; 2.98 µM (inactive) with OVCAR-5; 2.31 µM (inactive) in the experiment with A498; 0.845 µM (active) with A549; 0.687 µM (active) in the experiment on UO-31. Also, the GI50 is 0.893 µM (active) in the experiment on M14; 0.822 µM (active) with OVCAR-4; 0.311 µM (active) in the experiment on MCF7; 0.701 µM (active) with NCI-H23; 1.28 µM (inactive) with IGROV-1; 1.45 µM (inactive) in the experiment with NCI-H226. For the same compound, the GI50 in the experiment with OVCAR-8 is 0.622 µM (active).
Turning to `CN(C)c1ccc(-c2[nH]c(=O)c3ccccc3[n+]2C)cc1`, the GI50 was > 100 µM (inactive) in the experiment on Hs-578T; 83.8 µM (inactive) with HL-60; > 100 µM (inactive) in the experiment with SK-OV-3; 39.1 µM (inactive) in the experiment on NCI/ADR-RES; > 100 µM (inactive) with RXF 393; 41.3 µM (inactive) with T47D. Besides, the GI50 in the experiment on KM12 was 55.5 µM (inactive); in the experiment on SF-268, > 100 µM (inactive); with OVCAR-5 it was 44.2 µM (inactive); with A498 it was 99.1 µM (inactive); in the experiment on A549, > 100 µM (inactive); in the experiment on UO-31, 39.4 µM (inactive). For the same compound, the GI50 was 41.3 µM (inactive) with M14; 60.1 µM (inactive) in the experiment with OVCAR-4; 46.7 µM (inactive) with MCF7; 60 µM (inactive) in the experiment with NCI-H23; > 100 µM (inactive) in the experiment on IGROV-1; 40.6 µM (inactive) in the experiment on NCI-H226. Also, the GI50 in the experiment on OVCAR-8 is > 100 µM (inactive).
`NCCCCNC1(c2cc3ccccc3s2)CCCCC1`: the GI50 was 4.51 µM (inactive) in the experiment with Hs-578T; 3.09 µM (inactive) with HL-60; 14.5 µM (inactive) in the experiment with SK-OV-3; 6.9 µM (inactive) in the experiment on NCI/ADR-RES; 3.07 µM (inactive) in the experiment with RXF 393; 2.29 µM (inactive) with T47D. The GI50 is 3.2 µM (inactive) with KM12; 6.24 µM (inactive) with SF-268; 3.77 µM (inactive) in the experiment on OVCAR-5; 2.16 µM (inactive) in the experiment on A498; 5.96 µM (inactive) in the experiment with A549; 2.56 µM (inactive) in the experiment with UO-31. The GI50 was 1.98 µM (inactive) in the experiment with M14; 6.76 µM (inactive) in the experiment with OVCAR-4; 2.88 µM (inactive) with MCF7; 14.2 µM (inactive) with NCI-H23; 3.08 µM (inactive) in the experiment on IGROV-1; 16.5 µM (inactive) in the experiment with NCI-H226. In the experiment on OVCAR-8, the GI50 was 7.06 µM (inactive).
Regarding `Cc1[nH]n(-c2nc3c(c(=O)[nH]2)CCC3)c(=O)c1CCO`, the GI50 in the experiment with Hs-578T, in the experiment on HL-60, in the experiment with SK-OV-3, with NCI/ADR-RES, with RXF 393 and in the experiment on T47D was > 100 µM (inactive) each time. Besides, the GI50 in the experiment with KM12, in the experiment on SF-268, in the experiment on OVCAR-5, in the experiment with A498, in the experiment on A549 and with UO-31 was > 100 µM (inactive) in each case. Also, the GI50 in the experiment on M14, with OVCAR-4, in the experiment on MCF7, in the experiment on NCI-H23, with IGROV-1 and with NCI-H226 was > 100 µM (inactive) each time. Moreover, the GI50 in the experiment on OVCAR-8 was > 100 µM (inactive).
